Data set [1] deals with T1, Solute carrier organic anion transporter family member 1B1 (Homo sapiens, UniProt Q9Y6L6).
T1 sequence (Q9Y6L6 whole entry): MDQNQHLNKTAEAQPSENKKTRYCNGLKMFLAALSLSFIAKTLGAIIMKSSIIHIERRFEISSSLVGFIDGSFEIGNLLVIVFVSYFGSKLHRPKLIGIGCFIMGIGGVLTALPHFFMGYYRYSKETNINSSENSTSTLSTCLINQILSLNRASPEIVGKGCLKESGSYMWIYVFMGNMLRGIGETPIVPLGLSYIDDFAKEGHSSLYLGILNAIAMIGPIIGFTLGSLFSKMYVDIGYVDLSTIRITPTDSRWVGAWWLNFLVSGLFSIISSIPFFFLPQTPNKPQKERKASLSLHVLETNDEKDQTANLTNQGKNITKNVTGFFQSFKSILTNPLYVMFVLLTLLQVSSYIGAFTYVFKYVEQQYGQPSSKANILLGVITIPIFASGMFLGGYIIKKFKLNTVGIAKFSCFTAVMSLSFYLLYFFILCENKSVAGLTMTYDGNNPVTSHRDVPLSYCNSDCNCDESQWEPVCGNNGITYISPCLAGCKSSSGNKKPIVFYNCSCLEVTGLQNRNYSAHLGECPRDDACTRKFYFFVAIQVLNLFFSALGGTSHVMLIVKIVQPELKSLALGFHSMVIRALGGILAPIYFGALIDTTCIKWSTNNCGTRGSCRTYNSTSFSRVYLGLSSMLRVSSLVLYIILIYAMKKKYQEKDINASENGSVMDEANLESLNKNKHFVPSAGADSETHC
As to conditions: chinese hamster, cho, 10 µM.

In data set [2] the target is T2, Solute carrier organic anion transporter family member 1B3 (Homo sapiens, UniProt Q9NPD5).
T2 sequence (Q9NPD5 whole entry): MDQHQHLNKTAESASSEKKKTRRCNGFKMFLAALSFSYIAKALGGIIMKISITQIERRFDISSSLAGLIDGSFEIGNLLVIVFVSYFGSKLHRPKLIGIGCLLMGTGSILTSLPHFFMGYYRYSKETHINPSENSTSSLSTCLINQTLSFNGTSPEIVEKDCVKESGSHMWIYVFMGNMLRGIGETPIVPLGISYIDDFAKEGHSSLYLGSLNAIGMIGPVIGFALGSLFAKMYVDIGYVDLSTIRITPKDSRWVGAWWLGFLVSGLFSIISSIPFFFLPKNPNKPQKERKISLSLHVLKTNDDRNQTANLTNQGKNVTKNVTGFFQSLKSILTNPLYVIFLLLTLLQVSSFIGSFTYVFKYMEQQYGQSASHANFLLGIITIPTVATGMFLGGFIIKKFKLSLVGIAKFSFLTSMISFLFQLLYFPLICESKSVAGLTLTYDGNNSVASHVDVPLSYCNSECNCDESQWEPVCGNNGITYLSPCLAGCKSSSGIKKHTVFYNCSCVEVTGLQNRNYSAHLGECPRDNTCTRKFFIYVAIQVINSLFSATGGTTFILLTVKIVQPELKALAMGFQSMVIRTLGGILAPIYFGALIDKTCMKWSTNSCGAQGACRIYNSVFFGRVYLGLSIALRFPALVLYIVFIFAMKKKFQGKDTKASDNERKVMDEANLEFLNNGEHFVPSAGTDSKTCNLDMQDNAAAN
The settings on record: chinese hamster, cho, 10 µM.

Usually residual activity stands for the signal under treatment as a percentage of the control signal. As for `CC(C)NC[C@@H](O)COc1cccc2ccccc12.Cl` [DEXPROPRANOLOL HYDROCHLORIDE], the residual activity in data set [1] is 108.7%; in data set [2] it was 103.2%.

With `Br.COc1ccc2c(c1)[C@]13CCCC[C@@H]1[C@H](C2)N(C)CC3.O` [DEXTROMETHORPHAN HYDROBROMIDE], the residual activity in data set [1] is on record as 49.83%; in data set [2], 78.21%.

As for `CC(=O)Oc1cccc2c1C(=O)c1c(OC(C)=O)cc(C(=O)O)cc1C2=O` [DIACEREIN], the residual activity in data set [1] was found to be 72.58%; in data set [2], 86.69%.

Turning to `C=CCSCC=C` [DIALLYL SULFIDE], the residual activity amounted to 82.5% in data set [1] and 95.82% in data set [2].

For `CC1=NS(=O)(=O)c2cc(Cl)ccc2N1` [DIAZOXIDE], the residual activity in data set [1] is 91.81%; in data set [2], 91.61%.

Regarding `NC[C@@H]1CC[C@@H](N)[C@@H](O[C@H]2[C@H](O)[C@@H](O[C@H]3O[C@H](CO)[C@@H](O)[C@H](N)[C@H]3O)[C@H](N)C[C@@H]2N)O1` [DIBEKACIN], the residual activity is listed as 88.15% in data set [1] and 96.4% in data set [2].

As for `c1ccc2c(c1)sc1ccccc12` [DIBENZOTHIOPHENE], the results for the residual activity in data set [1] and in data set [2] were 114.7% and 93.83%, respectively.

For `O=C(CC(=O)c1ccccc1)c1ccccc1` [DIBENZOYLMETHANE], the residual activity in data set [1] worked out at 129.7%; in data set [2], 118.4%.

`CCCCOc1cc(C(=O)NCCN(CC)CC)c2ccccc2n1.Cl` [DIBUCAINE HYDROCHLORIDE]: the residual activity in data set [1] came out at 103.4%; in data set [2], 94.35%.

For `CCCCOC(=O)c1ccccc1C(=O)OCCCC` [DIBUTYL PHTHALATE], the figures for the residual activity in data set [1] and in data set [2] were 119.5% and 124.6%, respectively.

On to `N#Cc1c(Cl)cccc1Cl` [DICHLOBENIL], for which the residual activity in data set [1] came to 87.7%; in data set [2] it was 97.91%.

On to `ClC(Cl)=C(c1ccc(Cl)cc1)c1ccc(Cl)cc1` [DICHLORODIPHENYLDICHLOROETHYLENE], for which the values for the residual activity in data set [1] and in data set [2] were 94.96% and 103.2%, respectively.

As to `O=C([O-])Cc1ccccc1Nc1c(Cl)cccc1Cl.[Na+]` [DICLOFENAC SODIUM], the residual activity in data set [1] is listed as 110.6%; in data set [2], 71.01%.

Regarding `COc1c2ccccc2nc2occc12` [DICTAMNINE], the residual activity in data set [1] is listed as 151.5%; in data set [2], 118.6%.

Turning to `O=c1oc2ccccc2c(O)c1Cc1c(O)c2ccccc2oc1=O` [DICUMAROL], the figures for the residual activity in data set [1] and in data set [2] were 33.08% and 19.32%, respectively.

For `CCN(CC)CCOC(=O)C1(C2CCCCC2)CCCCC1.Cl` [DICYCLOMINE HYDROCHLORIDE], the residual activity in data set [1] came to 106.9%; in data set [2], 105.3%.

`C/C=C(/C(=C/C)c1ccc(O)cc1)c1ccc(O)cc1` [DIENESTROL]: the residual activity in data set [1] is 48.7%; in data set [2] it was 61.94%.

As to `CCN(CC)C(=O)N1CCN(C)CC1.O=C(O)CC(O)(CC(=O)O)C(=O)O` [DIETHYLCARBAMAZINE CITRATE], the results for the residual activity in data set [1] and in data set [2] were 95.54% and 81.28%, respectively.

Take `CCN(CC)C(=O)c1cccc(C)c1` [DIETHYLTOLUAMIDE]: the residual activity stood at 108.7% in data set [1] and 107.2% in data set [2].

On to `O=C(O)c1cc(-c2ccc(F)cc2F)ccc1O` [DIFLUNISAL], for which the figures for the residual activity in data set [1] and in data set [2] were 201% and 87.47%, respectively.

With `COc1cc(OC)c(-c2c(OC)cc(OC)cc2OC)c(OC)c1` [DIFUCOL HEXAMETHYL ETHER], the residual activity in data set [1] was 117.5%; in data set [2], 105.6%.

The record behind these values is ChEMBL document CHEMBL3039007, “Structure-based identification of OATP1B1/3 inhibitors” (Mol Pharmacol, 2013).
